Measurements taken from ChEMBL document CHEMBL2046384, “Discovery of novel benzylidene-1,3-thiazolidine-2,4-diones as potent and selective inhibitors of the PIM-1, PIM-2, and PIM-3 protein kinases” (Bioorg Med Chem Lett, 2012).
Converted amounts (≈) assume the structure as drawn. The source made the active and inactive calls. The rule behind the calls is not given here.

Experiments:
[1] = target: T1, Serine/threonine-protein kinase pim-1 (Homo sapiens, UniProt P11309); assay: Inhibition of human PIM1 using FITC-(AHX)RSRHSSYPAGT-COOH as substrate after 90 mins by mobility shift assay in presence of 50 uM ATP
Target sequence in this assay (P11309 whole entry): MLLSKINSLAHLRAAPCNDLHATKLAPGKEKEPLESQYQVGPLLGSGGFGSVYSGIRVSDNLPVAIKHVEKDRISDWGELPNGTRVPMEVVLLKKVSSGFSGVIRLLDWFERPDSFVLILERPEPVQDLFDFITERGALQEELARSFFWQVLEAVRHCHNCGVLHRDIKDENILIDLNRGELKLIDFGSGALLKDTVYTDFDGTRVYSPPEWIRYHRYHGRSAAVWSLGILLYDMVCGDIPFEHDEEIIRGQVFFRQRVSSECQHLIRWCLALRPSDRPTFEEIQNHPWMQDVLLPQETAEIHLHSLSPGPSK

[2] = target: T2, Serine/threonine-protein kinase pim-2 (Homo sapiens, UniProt Q9P1W9); assay: Inhibition of human PIM2 using FITC-(AHX)RSRHSSYPAGT-COOH as substrate after 90 mins by mobility shift assay in presence of 50 uM ATP
Target sequence in this assay (Q9P1W9 whole entry): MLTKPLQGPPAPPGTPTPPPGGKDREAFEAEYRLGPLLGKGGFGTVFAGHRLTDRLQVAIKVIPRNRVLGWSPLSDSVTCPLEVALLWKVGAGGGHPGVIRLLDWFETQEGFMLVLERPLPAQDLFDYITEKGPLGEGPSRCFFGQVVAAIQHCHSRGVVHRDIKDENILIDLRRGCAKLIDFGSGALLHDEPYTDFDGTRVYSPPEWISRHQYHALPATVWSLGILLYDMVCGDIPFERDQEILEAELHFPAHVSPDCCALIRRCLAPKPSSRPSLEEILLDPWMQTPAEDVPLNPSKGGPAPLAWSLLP

[3] = target: T3, Serine/threonine-protein kinase pim-3 (Homo sapiens, UniProt Q86V86); assay: Inhibition of human PIM3 using FITC-(AHX)RSRHSSYPAGT-COOH as substrate after 90 mins by mobility shift assay in presence of 50 uM ATP
[4] = target: T1, Serine/threonine-protein kinase pim-1; assay: Inhibition of human PIM1 using FITC-(AHX)RSRHSSYPAGT-COOH as substrate after 90 mins by mobility shift assay in presence of 5 mM ATP
Target sequence in this assay (P11309 whole entry): as the sequence (P11309 whole entry) above

[5] = target: T2, Serine/threonine-protein kinase pim-2; assay: Inhibition of human PIM2 using FITC-(AHX)RSRHSSYPAGT-COOH as substrate after 90 mins by mobility shift assay in presence of 5 mM ATP
Target sequence in this assay (Q9P1W9 whole entry): as the sequence (Q9P1W9 whole entry) above

[6] = target: T3, Serine/threonine-protein kinase pim-3; assay: Inhibition of human PIM3 using FITC-(AHX)RSRHSSYPAGT-COOH as substrate after 90 mins by mobility shift assay in presence of 5 mM ATP
[7] = Antiproliferative activity against human MOLM16 cells after 72 hrs by Cell Titer-Blue assay; type: functional; conditions: MOLM16, 72 h
[8] = Equilibrium solubility of the compound in phosphate buffer after 24 hrs at pH 7.4; type: physicochemical
[9] = target: Voltage-gated inwardly rectifying potassium channel KCNH2 (Homo sapiens, UniProt Q12809); assay: Inhibition of human ERG
[10] = target: Phosphatidylinositol 4,5-bisphosphate 3-kinase catalytic subunit gamma isoform (Homo sapiens) (UniProt P48736); assay: Inhibition of PI3Kgamma at 1 uM
[11] = target: Cyclin-dependent kinase 2 (Homo sapiens) (UniProt P24941); assay: Inhibition of CDK2 at 1 uM
[12] = target: T1, Serine/threonine-protein kinase pim-1; conditions: 1 uM
Target sequence in this assay (P11309 whole entry, looked up): as the sequence (P11309 whole entry) above

[13] = target: T2, Serine/threonine-protein kinase pim-2; conditions: 1 uM
Target sequence in this assay (Q9P1W9 whole entry, looked up): as the sequence (Q9P1W9 whole entry) above

[14] = target: T3, Serine/threonine-protein kinase pim-3; conditions: 1 uM
in vitro = conditions: rat, liver microsomes
[15] = Dissociation constant, pKa of the compound; type: physicochemical

Voltage-gated inwardly rectifying potassium channel KCNH2, sequence (Q12809 whole entry, canonical isoform): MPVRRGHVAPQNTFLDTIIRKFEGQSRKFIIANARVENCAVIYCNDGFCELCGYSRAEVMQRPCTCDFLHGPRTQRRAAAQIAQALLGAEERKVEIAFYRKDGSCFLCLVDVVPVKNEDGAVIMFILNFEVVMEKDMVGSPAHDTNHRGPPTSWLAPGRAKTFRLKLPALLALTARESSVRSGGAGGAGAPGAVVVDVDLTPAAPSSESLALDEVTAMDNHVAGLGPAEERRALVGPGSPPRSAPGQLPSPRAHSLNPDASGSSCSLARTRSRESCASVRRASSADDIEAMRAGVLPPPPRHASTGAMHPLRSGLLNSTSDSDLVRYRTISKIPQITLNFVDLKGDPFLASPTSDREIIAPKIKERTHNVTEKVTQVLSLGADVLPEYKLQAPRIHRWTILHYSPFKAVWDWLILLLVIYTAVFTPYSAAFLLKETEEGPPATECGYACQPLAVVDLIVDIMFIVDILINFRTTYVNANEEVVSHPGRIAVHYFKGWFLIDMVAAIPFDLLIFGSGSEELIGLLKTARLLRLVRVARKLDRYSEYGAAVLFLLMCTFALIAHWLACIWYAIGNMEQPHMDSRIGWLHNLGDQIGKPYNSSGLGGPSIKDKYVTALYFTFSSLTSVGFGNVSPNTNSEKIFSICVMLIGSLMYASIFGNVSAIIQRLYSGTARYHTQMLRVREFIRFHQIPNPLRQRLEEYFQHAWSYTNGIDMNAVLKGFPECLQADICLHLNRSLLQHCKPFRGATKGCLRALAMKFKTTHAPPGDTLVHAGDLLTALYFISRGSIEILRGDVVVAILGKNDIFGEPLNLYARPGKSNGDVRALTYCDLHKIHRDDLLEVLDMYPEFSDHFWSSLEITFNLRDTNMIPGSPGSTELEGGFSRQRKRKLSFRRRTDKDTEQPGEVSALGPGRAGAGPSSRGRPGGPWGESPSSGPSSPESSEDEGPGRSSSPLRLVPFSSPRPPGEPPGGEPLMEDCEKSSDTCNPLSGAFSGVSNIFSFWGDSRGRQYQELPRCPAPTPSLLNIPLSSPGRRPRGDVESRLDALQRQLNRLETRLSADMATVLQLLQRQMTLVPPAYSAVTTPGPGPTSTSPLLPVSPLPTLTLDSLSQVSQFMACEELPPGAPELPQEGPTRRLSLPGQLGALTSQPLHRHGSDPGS
Phosphatidylinositol 4,5-bisphosphate 3-kinase catalytic subunit gamma isoform (Homo sapiens), sequence (P48736 whole entry, looked up, canonical isoform): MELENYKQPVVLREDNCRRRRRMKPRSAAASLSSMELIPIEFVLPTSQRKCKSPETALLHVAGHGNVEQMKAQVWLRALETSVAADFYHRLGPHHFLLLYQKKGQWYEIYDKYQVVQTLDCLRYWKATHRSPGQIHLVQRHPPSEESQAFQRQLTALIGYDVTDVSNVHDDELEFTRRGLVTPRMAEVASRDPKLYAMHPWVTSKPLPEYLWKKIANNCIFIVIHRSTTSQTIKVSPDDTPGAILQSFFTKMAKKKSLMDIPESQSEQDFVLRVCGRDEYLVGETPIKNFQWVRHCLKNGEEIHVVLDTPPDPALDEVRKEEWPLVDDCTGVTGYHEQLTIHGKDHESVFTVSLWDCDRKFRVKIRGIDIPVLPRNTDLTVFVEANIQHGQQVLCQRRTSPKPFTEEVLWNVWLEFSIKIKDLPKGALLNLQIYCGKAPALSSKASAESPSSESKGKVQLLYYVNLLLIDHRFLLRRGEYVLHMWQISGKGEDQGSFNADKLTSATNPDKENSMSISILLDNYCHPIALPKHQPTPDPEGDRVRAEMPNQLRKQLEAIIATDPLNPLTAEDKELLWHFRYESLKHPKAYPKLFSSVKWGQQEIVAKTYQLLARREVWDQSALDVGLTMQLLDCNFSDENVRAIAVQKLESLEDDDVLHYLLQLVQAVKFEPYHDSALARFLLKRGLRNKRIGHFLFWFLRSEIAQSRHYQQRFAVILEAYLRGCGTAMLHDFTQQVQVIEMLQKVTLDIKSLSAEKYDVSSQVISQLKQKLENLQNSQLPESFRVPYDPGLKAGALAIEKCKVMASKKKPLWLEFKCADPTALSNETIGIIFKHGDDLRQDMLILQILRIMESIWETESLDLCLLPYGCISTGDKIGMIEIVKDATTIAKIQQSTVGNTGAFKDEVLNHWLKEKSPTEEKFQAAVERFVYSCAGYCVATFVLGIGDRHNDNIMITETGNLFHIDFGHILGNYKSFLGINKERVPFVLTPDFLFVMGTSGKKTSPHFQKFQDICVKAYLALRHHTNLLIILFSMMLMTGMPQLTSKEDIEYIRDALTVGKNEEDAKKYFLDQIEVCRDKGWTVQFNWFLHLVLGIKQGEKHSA

Row | SMILES | IC50 [1] [nM] | IC50 [2] [nM] | IC50 [3] [nM] | IC50 [4] [nM] | IC50 [5] [nM] | IC50 [6] [nM] | solubility thermodynamic at 24 h [8] [µM] | inhibition [10] | inhibition [11] | inhibition [12] [%] | inhibition [13] [%] | inhibition [14] [%] | microsomal CLint at 2 µM (in vitro) [µL/min/mg] | pKa [15] | GI50 [7] [nM] | IC50 [9] [nM]
1 | CN(C)C1CCN(c2ccccc2/C=C2\SC(=O)NC2=O)C1 (configuration not stated) | 61 | 500 | 110 |  |  |  |  |  |  |  |  |  |  |  |  | 
2 | CC(C)(C)OC(=O)N[C@H]1CCN(c2ccccc2/C=C2\SC(=O)NC2=O)C1 | 1500 | 15000 | 3200 |  |  |  |  |  |  |  |  |  |  |  |  | 
3 | COc1ccc(/C=C2\SC(=O)NC2=O)cc1OC | 950 | 2500 | 280 |  |  |  |  |  |  |  |  |  |  |  |  | 
4 | O=C1NC(=O)/C(=C/c2ccccc2)S1 | 890 | 4700 | 730 |  |  |  |  |  |  |  |  |  |  | 6.14 |  | 
5 | O=C1NC(=O)/C(=C/c2ccccc2N2CCNCC2)S1 | 28 | 180 | 36 |  |  |  |  |  |  |  |  |  |  |  |  | 
6 | N[C@H]1CCN(c2cc(Cl)ccc2/C=C2\SC(=O)NC2=O)C1 | 12 | 79 | 5 |  |  |  |  |  |  |  |  |  |  |  |  | 
7 | N[C@H]1CCN(c2ccccc2/C=C2\SC(=O)NC2=O)C1 | 36 | 250 | 42 |  |  |  |  |  |  |  |  |  |  |  |  | 
8 | CCOc1cc(/C=C2\SC(=O)NC2=O)ccc1O | 160 | 160 | 390 |  |  |  |  |  |  |  |  |  |  |  |  | 
9 | N[C@@H]1CCCN(c2c(/C=C3\SC(=O)NC3=O)cccc2-c2ccccc2)C1 |  |  |  |  |  |  | 263 (≈ 99.8 µg/mL) |  |  |  |  |  | < 4.8 |  | 20 | > 30000
10 | O=C1NC(=O)/C(=C/c2cccc(Cl)c2N2CCNCC2)S1 | 18 | 82 | 26 |  |  |  |  |  |  |  |  |  |  |  |  | 
11 | N[C@@H]1CCCN(c2ccccc2/C=C2\SC(=O)NC2=O)C1 | 9 | 14 | 9 | 100 | 1200 | 240 | 782 (≈ 237 µg/mL) |  |  |  |  |  |  |  | 490 | > 30000

Now from value to compound, other results behind:

Row | IC50 [1] [nM] | IC50 [2] [nM] | IC50 [3] [nM] | IC50 [4] [nM] | IC50 [5] [nM] | IC50 [6] [nM] | solubility thermodynamic at 24 h [8] [µM] | inhibition [10] | inhibition [11] | inhibition [12] [%] | inhibition [13] [%] | inhibition [14] [%] | microsomal CLint at 2 µM (in vitro) [µL/min/mg] | pKa [15] | SMILES | GI50 [7] [nM] | IC50 [9] [nM]
12 | < 3 | < 3 | < 3 | 10 | 150 | 10 | > 720 | inactive | inactive | > 50 | > 50 | > 50 | < 4.8 |  | N[C@@H]1CCCN(c2c(Br)cccc2/C=C2\SC(=O)NC2=O)C1 | 100 | > 30000
13 | < 3 | < 4 | < 3 | 8 | 140 | < 3 | 337 (≈ 127 µg/mL) |  |  |  |  |  | 6.9 |  | CC(C)COc1cccc(/C=C2\SC(=O)NC2=O)c1N1CCC[C@@H](N)C1 | 80 | 23000
14 | < 3 | 5 | < 3 | 20 | 320 | 10 | > 1000 |  |  |  |  |  | 3.9 |  | COc1cccc(/C=C2\SC(=O)NC2=O)c1N1CCC[C@@H](N)C1 | 210 | 
15 | < 3 | < 4 | < 3 | 10 | 160 | 6 | > 1000 |  |  |  |  |  | 12.1 |  | CCOc1cccc(/C=C2\SC(=O)NC2=O)c1N1CCC[C@@H](N)C1 | 80 | 
16 | < 3 | < 3 | < 3 | < 4 | 50 | < 3 | 378 (≈ 137 µg/mL) |  |  |  |  |  | < 4.8 |  | CC(C)Oc1cccc(/C=C2\SC(=O)NC2=O)c1N1CCC[C@@H](N)C1 | 20 | 
17 | < 6 | 25 | < 5 |  |  |  |  |  |  |  |  |  |  |  | N[C@H]1CCN(c2c(Cl)cccc2/C=C2\SC(=O)NC2=O)C1 |  | 
18 | < 3 | 19 | 4 | 4 | 690 | 38 | 142 (≈ 54 µg/mL) |  |  |  |  |  |  |  | N[C@@H]1CCCN(c2c(/C=C3\SC(=O)NC3=O)cccc2-c2ccncc2)C1 | 2280 | 
19 | < 3 | 5 | < 3 | 20 | 310 | 20 |  |  |  |  |  |  | 8.8 |  | N[C@@H]1CCCN(c2c(Cl)cccc2/C=C2\SC(=O)NC2=O)C1 | 190 | 
